Like-named read-outs stand apart in the source and are kept apart here. *1 amine or outer side, *2 acyl side, *3 side chain or, on linkers, in order; H or OH if unused. Where a SMILES comes first, the peptide text is derived from it. Bridges are numbered along the chain shown (N, C = ends). [ ]: non-standard residue; d: D form. The star is where a group is joined. X1 = CC[C@H](C)[C@@H](N[*:1])[C@@H](O)CC(=O)O[C@H](C(=O)[C@H](C)C(=O)[*:2])C(C)C; X2 = CC[C@H](C)[C@@H](N[*:1])[C@@H](O)CC(=O)[*:2]; NMeY = CN[C@@H](Cc1ccc(O)cc1)C(=O)O; dNMeL = CN[C@H](CC(C)C)C(=O)O; Hiv = CC(C)[C@H](O)C(=O)O; Pyruvoyl = CC(=O)C(=O)*; Cbz = O=C(OCc1ccccc1)*
Columns and labels:
[1] = tested on: DU145 human prostate carcinoma; assay: Cytotoxicity IC50 (after Berjeron et al); format: cell-based
From the text: P388=Murine lymphoma. A549=human lung carcinoma. HT-29=human colon carcinoma. MEL-28=human melanoma. DU145=human prostate carcinoma
Chem. 2000, 65, 782-792. Their synthesis was published before their discovery (l): Org. […] A549=human lung carcinoma. HT-29=human colon carcinoma. MEL-28=human melanoma. DU145=human prostate carcinoma

P388 Murine lymphoma = assay: Cytotoxicity IC50 (after Berjeron et al)
From the text: (§1) Methodology: after Berjeron et al, Biochem and Bioph Res. Comm., 1984, 121, 3, 848-854.

[2] = tested on: A549 human lung carcinoma; assay: Cytotoxicity IC50 (after Berjeron et al)
From the text: as §1

[3] = tested on: HT-29 human colon carcinoma; assay: Cytotoxicity IC50 (after Berjeron et al)
From the text: as §1

MEL-28 human melanoma = assay: Cytotoxicity IC50 (after Berjeron et al)
From the text: as §1

tumor cells = assay: In vitro antitumor activity; format: cell-based
5637 (Bladder) = assay: IC50 Aplidine Family panel (MTT/MTS); format: cell-based; settings: MTT; read-out: IC50 (Molar) Bladder 5637
MX-1 (Breast) = assay: IC50 Aplidine Family panel (MTT/MTS); format: cell-based; settings: MTT; read-out: IC50 (Molar) Breast MX-1
HT-29 (Colon) = assay: IC50 Aplidine Family panel (MTT/MTS); format: cell-based, human; settings: MTT; read-out: IC50 (Molar) Colon HT-29
Hs746t (Gastric) = assay: IC50 Aplidine Family panel (MTT/MTS); format: cell-based; settings: MTT; read-out: IC50 (Molar) Gastric Hs746t
SK-HEP-1 (Liver) = assay: IC50 Aplidine Family panel (MTT/MTS); format: cell-based; settings: MTT; read-out: IC50 (Molar) Liver SK-HEP-1
A549 (NSCL) = assay: IC50 Aplidine Family panel (MTT/MTS); format: cell-based, human; settings: MTT; read-out: IC50 (Molar) NSCL A549
SK-OV-3 (Ovary) = assay: IC50 Aplidine Family panel (MTT); format: cell-based; settings: read-out: IC50 (Molar) Ovary SK-OV-3
PANC-1 (Pancreas) = assay: IC50 Aplidine Family panel (MTT); format: cell-based; settings: read-out: IC50 (Molar) Pancreas PANC-1
FADU (Pharynx) = assay: IC50 Aplidine Family panel (MTT/MTS); format: cell-based; settings: MTT; read-out: IC50 (Molar) Pharynx FADU
PC-3 (Prostate) = assay: IC50 Aplidine Family panel (MTT); format: cell-based; settings: read-out: IC50 (Molar) Prostate PC-3
786-O (Renal) = assay: IC50 Aplidine Family panel (MTT); format: cell-based; settings: read-out: IC50 (Molar) Renal 786-O
SW 694 (Fibrosarcoma) = assay: IC50 Aplidine Family panel (MTT/MTS); format: cell-based; settings: MTT; read-out: IC50 (Molar) Fibrosarcoma SW 694
[4] = tested on: HL-60 (ALL, Promyelocytic leukemia); assay: IC50 Aplidine Family panel (MTT/MTS); format: cell-based; settings: MTT; read-out: IC50 (Molar) ALL (Promyelocytic leukemia) HL-60
[5] = tested on: Molt 3 (ALL, Acute lymphobalstic); assay: IC50 Aplidine Family panel (MTT/MTS); format: cell-based; settings: MTT; read-out: IC50 (Molar) ALL (Acute lymphobalstic) Molt 3
[6] = tested on: K562 (CML, Chronic myelogenous); assay: IC50 Aplidine Family panel (MTT/MTS); format: cell-based; settings: MTT; read-out: IC50 (Molar) CML (Chronic myelogenous) K562
CCRF-SB (ALL, B-cell) = assay: IC50 Aplidine Family panel (MTT); format: cell-based; settings: read-out: IC50 (Molar) ALL (B-cell) CCRF-SB
H9 (Lymphoma, T cell) = assay: IC50 Aplidine Family panel (MTT/MTS); format: cell-based; settings: MTT; read-out: IC50 (Molar) Lymphoma (T cell) H9
[7] = tested on: Hut 78 (Lymphoma, Cutaneous T cell); assay: IC50 Aplidine Family panel (MTT); format: cell-based; settings: read-out: IC50 (Molar) Lymphoma (Cutaneous T cell) Hut 78
[8] = tested on: MC116 (Lymphoma, undifferentiated); assay: IC50 Aplidine Family panel (MTT/MTS); format: cell-based; settings: MTT; read-out: IC50 (Molar) Lymphoma (undifferentiated) MC116
[9] = tested on: U-937 (Lymphoma, Histiocytic); assay: IC50 Aplidine Family panel (MTT); format: cell-based; settings: read-out: IC50 (Molar) Lymphoma (Histiocytic) U-937
[10] = tested on: P3HR1 (Lymphoma, Burkitts ascites); assay: IC50 Aplidine Family panel (MTT); format: cell-based; settings: read-out: IC50 (Molar) Lymphoma (Burkitts ascites) P3HR1
[11] = doses near those required for therapeutic applications; cited from earlier work
[12] = tested on: tumor cells (clonogenic assays); settings: compared with III (didemnin B); cited from earlier work
protein biosynthesis = settings: compared with III (didemnin B); cited from earlier work
pancreatic carcinoma = settings: compared with III (didemnin B); cited from earlier work
NCI 60 cell panel = settings: cited from earlier work
[13] = Mus musculus, P388, read-out: Cytotoxicity of aplidine derivatives IC50 (Molar) P388
[14] = Homo sapiens, A549, read-out: Cytotoxicity of aplidine derivatives IC50 (Molar) A549
[15] = Homo sapiens, HT-29, read-out: Cytotoxicity of aplidine derivatives IC50 (Molar) HT29
[16] = Homo sapiens, SK-MEL-28, read-out: Cytotoxicity of aplidine derivatives IC50 (Molar) MEL28
[17] = DU145, read-out: Cytotoxicity of aplidine derivatives IC50 (Molar) DU145
[18] = read-out: Cytotoxicity of aplidine derivatives IC50 (Molar) P388, P388
[19] = read-out: Cytotoxicity of aplidine derivatives IC50 (Molar) A549, A549
[20] = read-out: Cytotoxicity of aplidine derivatives IC50 (Molar) HT29, HT29
[21] = read-out: Cytotoxicity of aplidine derivatives IC50 (Molar) MEL28, MEL28

## CC[C@H](C)[C@H]1NC(=O)[C@@H](NC(=O)[C@@H](CC(C)C)NC)[C@@H](C)OC(=O)[C@H](Cc2ccc(OC)cc2)N(C)C(=O)[C@@H]2CCCN2C(=O)[C@H](CC(C)C)NC(=O)[C@H](C(C)C)NC(=O)C[C@@H]1O [SVPL2, [Val]^3-Didemnin A] (H-[dNMeL]T[X2]VLP[NMeY](Me); ester 2-C)
[1]; Homo sapiens, DU-145, read-out: Cytotoxicity of aplidine derivatives IC50 (Molar) DU145
  IC50: 1.13 nM
P388 Murine lymphoma; [13]
  IC50: 1.1 nM
[2]; [14]
  IC50: 1.13 nM
[3]; [15]
  IC50: 1.13 nM
MEL-28 human melanoma; [16]
  IC50: 1.13 nM

## [Val]^3 Z-Didemnin A [SVPL3]
[1]; [17]
  IC50: 0.98 nM
P388 Murine lymphoma; [18]
  IC50: 0.98 nM
[2]; [19]
  IC50: 0.98 nM
[3]; [20]
  IC50: 0.98 nM
MEL-28 human melanoma; [21]
  IC50: 0.98 nM

## CC[C@H](C)[C@H]1NC(=O)[C@@H](NC(=O)[C@@H](CC(C)C)N(C)C(=O)[C@@H]2CCCN2C(=O)C(C)=O)[C@@H](C)OC(=O)[C@H](Cc2ccc(OC)cc2)N(C)C(=O)[C@@H]2CCCN2C(=O)[C@H](CC(C)C)NC(=O)[C@H](C(C)C)NC(=O)C[C@@H]1O [SVPL1, [Val]^3-Aplidine] (Pyruvoyl-P[dNMeL]T[X2]VLP[NMeY](Me); ester 3-C)
Tumor cells
  in vitro antitumor activity: high level of in vitro antitumor activity
P388 Murine lymphoma; Mus musculus, P388, read-out: Cytotoxicity of [aa3]-aplidine Congeners IC50 (Molar) P388
  IC50: 0.113 nM
[2]; Homo sapiens, A549, read-out: Cytotoxicity of [aa3]-aplidine Congeners IC50 (Molar) A549
  IC50: 0.113 nM
[3]; Homo sapiens, HT-29, read-out: Cytotoxicity of [aa3]-aplidine Congeners IC50 (Molar) HT29
  IC50: 0.113 nM
MEL-28 human melanoma; Homo sapiens, SK-MEL-28, read-out: Cytotoxicity of [aa3]-aplidine Congeners IC50 (Molar) MEL28
  IC50: 0.113 nM

## [Hiv]^3 Z-Didemnin A [SHPL3]
[1]; [17]
  IC50: 4.9 nM
P388 Murine lymphoma; [18]
  IC50: 4.9 nM
[2]; [19]
  IC50: 4.9 nM
[3]; [20]
  IC50: 4.9 nM
MEL-28 human melanoma; [21]
  IC50: 4.9 nM

## CC[C@H](C)[C@H]1NC(=O)[C@@H](NC(=O)[C@@H](CC(C)C)N(C)C(=O)[C@@H]2CCCN2C(=O)C(C)O)[C@@H](C)OC(=O)[C@H](Cc2ccc(OC)cc2)N(C)C(=O)[C@@H]2CCCN2C(=O)[C@H](CC(C)C)NC(=O)[C@@H](C)C(=O)[C@H](C(C)C)OC(=O)C[C@@H]1O (stereo partly shown) [Didemnin B]
5637 (Bladder)
  IC50: 25 nM
MX-1 (Breast)
  IC50: 1540 nM
HT-29 (Colon)
  IC50: 80.7 nM
Hs746t (Gastric)
  IC50: 6.6 nM
SK-HEP-1 (Liver)
  IC50: 92.1 nM
A549 (NSCL)
  IC50: 121000 nM
SK-OV-3 (Ovary)
  IC50: 163 nM
PANC-1 (Pancreas)
  IC50: 0.152 nM
FADU (Pharynx)
  IC50: 97.9 nM
PC-3 (Prostate)
  IC50: 90 nM
786-O (Renal)
  IC50: 290 nM
SW 694 (Fibrosarcoma)
  IC50: 3280 nM
[4]
  IC50: 144 nM
[5]
  IC50: 545 nM
[6]
  IC50: 3310 nM
CCRF-SB (ALL, B-cell)
  IC50: 655 nM
H9 (Lymphoma, T cell)
  IC50: 213 nM
[7]
  IC50: 35.6 nM
[8]
  IC50: 8.84 nM
[9]
  IC50: 187 nM
[10]
  IC50: 55.8 nM
[11]
  toxicity: toxic at doses near those required for therapeutic applications

## [ZNVa-Pro]^9-aplidine [9NVSAPL2]
[1]; [17]
  IC50: 3.93 nM
P388 Murine lymphoma; [18]
  IC50: 7.9 nM
[2]; [19]
  IC50: 3.93 nM
[3]; [20]
  IC50: 3.93 nM
MEL-28 human melanoma; [21]
  IC50: 3.93 nM

## CC[C@H](C)[C@H]1NC(=O)[C@@H](NC(=O)[C@@H](CC(C)C)NC)[C@@H](C)OC(=O)[C@H](Cc2ccc(OC)cc2)N(C)C(=O)[C@@H]2CCCN2C(=O)[C@H](CC(C)C)NC(=O)[C@@H](C)C(=O)[C@H](C(C)C)OC(=O)C[C@@H]1O [SAPL2, Didemnin A, reference compound] (H-[dNMeL]T[X1]LP[NMeY](Me); ester 2-C)
P388 Murine lymphoma; [13]
  IC50: 5.3 nM
[2]; [14]
  IC50: 4.24 nM
[3]; [15]
  IC50: 8.48 nM
MEL-28 human melanoma; [16]
  IC50: 1.13 nM

## CC[C@H](C)[C@H]1NC(=O)[C@@H](NC(=O)[C@@H](CC(C)C)N(C)C(=O)OCc2ccccc2)[C@@H](C)OC(=O)[C@H](Cc2ccc(OC)cc2)N(C)C(=O)[C@@H]2CCCN2C(=O)[C@H](CC(C)C)NC(=O)[C@@H](C)C(=O)[C@H](C(C)C)OC(=O)C[C@@H]1O [SAPL3, Z-Didemnin A] (Cbz-[dNMeL]T[X1]LP[NMeY](Me); ester 2-C)
P388 Murine lymphoma; [13]
  IC50: 9.3 nM
[2]; [14]
  IC50: 2.32 nM
[3]; [15]
  IC50: 4.64 nM
MEL-28 human melanoma; [16]
  IC50: 4.64 nM

## [MeVal]^3-aplidine
Tumor cells
  in vitro antitumor activity: high level of in vitro antitumor activity

## CC[C@H](C)[C@H]1NC(=O)[C@@H](NC(=O)[C@@H](CC(C)C)NC)[C@@H](C)OC(=O)[C@H](Cc2ccc(OC)cc2)N(C)C(=O)[C@@H]2CCCN2C(=O)[C@H](CC(C)C)NC(=O)[C@H](C(C)C)OC(=O)C[C@@H]1O [SHPL2, [Hiv]^3-Didemnin A] (H-[dNMeL]T[X2][Hiv]LP[NMeY](Me); ester 2-C)
P388 Murine lymphoma; [13]
  IC50: 1.1 nM
[2]; [14]
  IC50: 1.13 nM
[3]; [15]
  IC50: 1.13 nM
MEL-28 human melanoma; [16]
  IC50: 1.13 nM

## [Hiv]^3-[L-Lac]^9-aplidine [9LSHPL1(L)]
[12]
  in vitro antitumor activity in clonogenic assays: retains similar levels of in vitro antitumor activity
Protein biosynthesis
  protein biosynthesis inhibition properties: retains similar levels
Pancreatic carcinoma
  in vitro activity against pancreatic carcinoma: somewhat more active in vitro than III
NCI 60 cell panel
  tumor type specificity in NCI 60 cell panel: does not show any tumor type specificity

From patent publication US20080009435A1, “Synthetic methods for aplidine and new antitumoral derivatives, methods of making and using them” (Pharma Mar, S.A., a Spain corporation, priority 2000, published 2008)
